Values quoted from earlier work in US9511020B2, “Controlled release corticosteroid compositions and methods for the treatment of otic disorders” (priority 2008, dated 2016).

Tests used:
[1] = relative potency
[2] = for Glucocorticoid potency: relative potency

Compound	Mineralocorticoid potency [1]	Glucocorticoid potency [2]	potency relative to endogenous cortisol ([2]; times the potency of endogenous cortisol)
C[C@]12CCC(=O)C=C1CC[C@@H]1[C@@H]2[C@@H](O)C[C@]2(C=O)[C@@H](C(=O)CO)CC[C@@H]12 [aldosterone]	1.0	0.07	
C[C@]12CCC(=O)C=C1CC[C@@H]1[C@@H]2[C@@H](O)C[C@@]2(C)[C@H]1CC[C@]2(O)C(=O)CO [cortisol]	0.054	1	
C[C@]12C=CC(=O)C=C1CC[C@@H]1[C@@H]2[C@@H](O)C[C@@]2(C)[C@H]1CC[C@]2(O)C(=O)CO [prednisolone]	0.013	1.7	4-5 times
C=C1C[C@H]2[C@@H]3CCC4=CC(=O)C=C[C@]4(C)[C@H]3[C@@H](O)C[C@]2(C)[C@@]1(O)C(=O)CO [prednylidene]	0.0011	182	
C[C@]12C=CC(=O)C=C1CC[C@H]1[C@@H]3C[C@@H](O)[C@](O)(C(=O)CO)[C@@]3(C)C[C@H](O)[C@@]12F [triamcinolone]	0.0002	0.35	
